The values that follow come from ChEMBL document CHEMBL1152844, “Synthesis and anti-HIV studies of 2- and 3-adamantyl-substituted thiazolidin-4-ones” (Eur J Med Chem, 2009).

The source made the active and inactive calls. The rule behind the calls is not given here.

Series [1] has as its target T1, Human immunodeficiency virus type 1 reverse transcriptase (Human immunodeficiency virus 1, UniProt Q72547). Description: Inhibition of HIV1 3B reverse transcriptase after 30 mins.
Series [2] deals with Human immunodeficiency virus 1. Description: Antiviral activity against HIV1 3B infected in human CEM cells assessed as inhibition of virus-induced cytopathicity after 4 days. The format is functional, organism-based. The following applies: Human immunodeficiency virus 1, 3B, CCRF-CEM, 96 h.
For series [3], the system named is Human immunodeficiency virus 2. Kind of series: Antiviral activity against HIV2 ROD infected in human CEM cells assessed as inhibition of virus-induced cytopathicity after 4 days. The format is functional, organism-based. The following applies: Human immunodeficiency virus 2, ROD, CCRF-CEM, 96 h.
The test system of the next series is CCRF-CEM. Description: (§1) Cytotoxicity against HIV-infected human CEM cells. The following applies: ccrf-cem. The format is cell-based.
The nature of series [4]: Selectivity index, ratio of CC50 for human CEM cells to EC50 for HIV1 3B. The following applies: read-out: Ratio CC50/EC50. The format is toxicity, cell-based, CCRF-CEM.
Series [5] is described as follows: Inhibition of HIV2 ROD reverse transcriptase after 30 mins. Set-up: species or system Human immunodeficiency virus 2.
A further series deals with Human alphaherpesvirus 1. Kind of series: Antiviral activity against Herpes simplex virus type 1 infected in HEL cells. The format is functional, organism-based.
The test system of the next series is Human alphaherpesvirus 2. Description: Antiviral activity against Herpes simplex virus type 2 infected in HEL cells. The format is functional, organism-based.
For a further series, the system named is Vaccinia virus. Kind of series: Antiviral activity against Vaccinia virus infected in HEL cells. The following applies: Orthopoxvirus vaccinia. The format is functional, organism-based.
Series [6] deals with Vesicular stomatitis virus. Description: Antiviral activity against Vesicular stomatitis virus infected in HEL cells. In kind it is functional, organism-based.
Another series concerns Human respirovirus 3. Description: Antiviral activity against Parainfluenza virus type 3 infected in african green monkey Vero cells. The format is functional, organism-based.
The test system of series [7] is Mammalian orthoreovirus 1. Kind of series: Antiviral activity against Reovirus 1 infected in african green monkey Vero cells. In kind it is functional, organism-based.
The subject of the next series is Sindbis virus. Description: Antiviral activity against Sindbis virus infected in african green monkey Vero cells. The format is functional, organism-based.
Series [8] deals with Coxsackievirus B4. Kind of series: Antiviral activity against Coxsackievirus B4 infected in african green monkey Vero cells. The format is functional, organism-based.
Another series relates to Punta Toro virus. Description: Antiviral activity against Punta Toro virus infected in african green monkey Vero cells. In kind it is functional, organism-based.
Series [9] has as its system Vesicular stomatitis virus. Description: Antiviral activity against Vesicular stomatitis virus infected in human HeLa cells. In kind it is functional, organism-based.
In series [10] the test system is Respiratory syncytial virus. Description: Antiviral activity against Respiratory syncytial virus infected in human HeLa cells. In kind it is functional, organism-based.
Series [11] deals with Coxsackievirus B4. Kind of series: Antiviral activity against Coxsackievirus B4 infected in human HeLa cells. The format is functional, organism-based.
A further series deals with Feline coronavirus. Kind of series: Antiviral activity against Feline coronavirus infected in crandel feline kidney cells. The format is functional, organism-based.
The test system of series [12] is Influenza A virus. Kind of series: Antiviral activity against Influenza virus type A H1N1 infected in MDCK cells. In kind it is functional, organism-based.
Series [13] has as its system Influenza A virus. Description: Antiviral activity against Influenza virus type A H3N2 infected in MDCK cells. In kind it is functional, organism-based.
A further series has as its system Influenza B virus. Description: Antiviral activity against Influenza virus type B infected in MDCK cells. In kind it is functional, organism-based.
Series [14] can be described thus: as §1. The format is cell-based, CCRF-CEM. The following applies: HIV-infected CEM (CCRF-CEM) cells.
In series [15] the target is T1, Human immunodeficiency virus type 1 reverse transcriptase. Kind of series: Activity at HIV1 non-nucleoside reverse transcriptase.
Series [16] concerns the target Human immunodeficiency virus type 1 reverse transcriptase (Human immunodeficiency virus 1) (UniProt Q72547). Description: Ratio of Ki to Km for HIV1 non-nucleoside reverse transcriptase.

By IC50 is commonly meant the concentration that gives 50% inhibition. One may read the EC50 as the concentration that produces a half-maximal response. The term CC50 denotes the concentration giving 50% cytotoxicity. Consider `O=C1CSC(c2c(F)cccc2F)N1CCC12CC3CC(CC(C3)C1)C2` (stereo not drawn), for which the values for the IC50 in series [1] and in series [5] were 31.7 µM and not below 600 µM, respectively. In addition, the EC50 in series [2] was 2 µM; in series [3], not below 4 µM. In addition, half-maximal cytotoxicity in the series with CCRF-CEM (CC50) was put at 7.9 µM. Moreover, the selectivity ratio in [4] came to 4. Further, the outcome (in the series on Human alphaherpesvirus 1; in the series with Human alphaherpesvirus 2; in the series with Vaccinia virus; in series [6]; in the series on Human respirovirus 3; in series [7]) was inactive. Moreover, the result (with Sindbis virus; with Coxsackievirus B4 [8]; in the series with Punta Toro virus; in series [9]; in [10]; in the series on Coxsackievirus B4 [11]) was inactive. In addition, the result in the series on Feline coronavirus, in the series on Influenza A virus [12], in the series with Influenza A virus [13] and with Influenza B virus was inactive.

For `O=C1CSC(c2c(Cl)cccc2Cl)N1CCC12CC3CC(CC(C3)C1)C2` (stereo not drawn), the IC50 in series [1] was 226 µM; in series [5] it was more than 600 µM. The EC50 was 3.4 µM in series [2] and not below 9.7 µM in series [3]. The molecule further gave a CC50 in the series with CCRF-CEM of 19 µM. In addition, the selectivity ratio in series [4] worked out at 5.5. Moreover, the result (with Human alphaherpesvirus 1; in the series on Human alphaherpesvirus 2; in the series with Vaccinia virus; in series [6]; in the series on Human respirovirus 3; in series [7]) was inactive. The result (in the series on Sindbis virus; with Coxsackievirus B4 [8]; in the series with Punta Toro virus; in series [9]; in [10]; in the series with Coxsackievirus B4 [11]) was inactive. In addition, the result in the series with Feline coronavirus, in the series on Influenza A virus [12], in the series with Influenza A virus [13] and in the series with Influenza B virus was inactive.

Turning to `CCN(CC)CCN1C(=O)CSC1CC12CC3CC(CC(C3)C1)C2` (stereo not drawn), the EC50 in series [2] came out at 30.8 µM; in series [3], 46 µM. In series [14], this molecule gave a CC50 of 43 µM. The selectivity ratio in series [4] was less than 1.4. Besides, the outcome (with Human alphaherpesvirus 1; in the series with Human alphaherpesvirus 2; in the series with Vaccinia virus; in [6]; in the series on Human respirovirus 3; in [7]) was inactive. Besides, the outcome (with Sindbis virus; in the series with Coxsackievirus B4 [8]; with Punta Toro virus; in series [9]; in series [10]; in the series on Coxsackievirus B4 [11]) was inactive. For the same molecule, the outcome in the series with Feline coronavirus, with Influenza A virus [12], in the series on Influenza A virus [13] and with Influenza B virus was inactive.

As to `O=C1CSC(c2c(Cl)cccc2Cl)N1CC12CC3CC(CC(C3)C1)C2` (stereo not drawn), the IC50 in series [1] was 42.9 µM; in [5], not below 600 µM. The EC50 was 1 µM in series [2] and not below 10.1 µM in [3]. The CC50 in the series with CCRF-CEM turned out to be 21.1 µM. For the same molecule, in series [4], the selectivity ratio was determined as 21. The result (with Human alphaherpesvirus 1; in the series with Human alphaherpesvirus 2; in the series with Vaccinia virus; in [6]; in the series with Human respirovirus 3; in series [7]) was inactive. Also, the result (in the series with Sindbis virus; with Coxsackievirus B4 [8]; in the series on Punta Toro virus; in series [9]; in series [10]; in the series with Coxsackievirus B4 [11]) was inactive. For the same molecule, the outcome in the series on Feline coronavirus, in the series with Influenza A virus [12], with Influenza A virus [13] and in the series with Influenza B virus was inactive.

On to `O=C1CSC(c2c(F)cccc2F)N1CC12CC3CC(CC(C3)C1)C2` (stereo not drawn), for which the IC50 in [1] is 495 µM; in series [5], more than 600 µM. In addition, the EC50 in series [2] is 11 µM; in [3], 35.7 µM. Besides, the CC50 in the series on CCRF-CEM was more than 275 µM. Also, in [4], the selectivity ratio was more than 25. Moreover, the result (in the series on Human alphaherpesvirus 1; in the series with Human alphaherpesvirus 2; with Vaccinia virus; in series [6]; in the series with Human respirovirus 3; in series [7]) was inactive. Also, the outcome (in the series with Sindbis virus; with Coxsackievirus B4 [8]; with Punta Toro virus; in series [9]; in series [10]; in the series with Coxsackievirus B4 [11]) was inactive. Moreover, the outcome in the series with Feline coronavirus, in the series on Influenza A virus [12], with Influenza A virus [13] and in the series on Influenza B virus was inactive.

As a reminder, the Ki is the dissociation constant of the complex between target and ligand, obtained from inhibition or displacement. Molecule `Cc1cc(C)nc(N2C(=O)CSC2C23CC4CC(CC(C4)C2)C3)c1` (racemic) yielded a Ki in [15] of 12 µM. Also, the Ratio in series [16] turned out to be 5.5. Moreover, the EC50 in series [3] is more than 12 µM. The selectivity ratio in series [4] amounted to 120. The outcome (with Human alphaherpesvirus 1; in the series on Human alphaherpesvirus 2; in the series on Vaccinia virus; in [6]; in the series on Human respirovirus 3; in series [7]) was inactive. The outcome (in the series on Sindbis virus; in the series on Coxsackievirus B4 [8]; in the series on Punta Toro virus; in series [9]; in [10]; in the series on Coxsackievirus B4 [11]) was inactive. For the same molecule, the outcome in the series on Feline coronavirus, in the series on Influenza A virus [12], with Influenza A virus [13] and with Influenza B virus was inactive.
